In PMC8958504 (Journal of Medicinal Chemistry, 2022):

Key:
[1] = target: T1, hMAO-A (Homo sapiens, UniProt P21397); assay: biochemical; conditions: read-out: hMAO-A (IC50); recombinant hMAO-A, p-tyramine substrate
T1 sequence (P21397 1-527): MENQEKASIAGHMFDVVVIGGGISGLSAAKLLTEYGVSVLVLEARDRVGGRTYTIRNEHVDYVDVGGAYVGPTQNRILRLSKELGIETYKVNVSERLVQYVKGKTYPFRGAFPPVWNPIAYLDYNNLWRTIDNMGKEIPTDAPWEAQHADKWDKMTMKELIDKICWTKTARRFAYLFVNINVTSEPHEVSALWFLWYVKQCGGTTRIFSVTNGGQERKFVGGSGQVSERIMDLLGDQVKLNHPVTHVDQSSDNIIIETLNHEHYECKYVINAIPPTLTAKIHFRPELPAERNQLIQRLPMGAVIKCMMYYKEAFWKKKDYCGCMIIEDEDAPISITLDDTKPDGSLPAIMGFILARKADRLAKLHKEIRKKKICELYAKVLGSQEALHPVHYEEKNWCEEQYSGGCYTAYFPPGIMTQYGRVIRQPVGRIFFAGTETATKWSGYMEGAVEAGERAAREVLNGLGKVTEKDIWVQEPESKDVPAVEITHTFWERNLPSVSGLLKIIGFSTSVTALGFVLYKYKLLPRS
Protocol: (§1) The hMAO-A/B inhibition of all compounds was determined using the Amplex Red MAO assay kit.
(§2) Assays were performed following the general procedure previously described.[98] […] The specific fluorescence emission was calculated after subtracting the background activity, which was determined from wells containing all components except the hMAO isoforms, which were replaced with PBS.

[2] = target: T2, hMAO-B (Homo sapiens, UniProt P27338); assay: biochemical; conditions: read-out: hMAO-B (IC50); recombinant hMAO-B, p-tyramine substrate
T2 sequence (P27338 1-520): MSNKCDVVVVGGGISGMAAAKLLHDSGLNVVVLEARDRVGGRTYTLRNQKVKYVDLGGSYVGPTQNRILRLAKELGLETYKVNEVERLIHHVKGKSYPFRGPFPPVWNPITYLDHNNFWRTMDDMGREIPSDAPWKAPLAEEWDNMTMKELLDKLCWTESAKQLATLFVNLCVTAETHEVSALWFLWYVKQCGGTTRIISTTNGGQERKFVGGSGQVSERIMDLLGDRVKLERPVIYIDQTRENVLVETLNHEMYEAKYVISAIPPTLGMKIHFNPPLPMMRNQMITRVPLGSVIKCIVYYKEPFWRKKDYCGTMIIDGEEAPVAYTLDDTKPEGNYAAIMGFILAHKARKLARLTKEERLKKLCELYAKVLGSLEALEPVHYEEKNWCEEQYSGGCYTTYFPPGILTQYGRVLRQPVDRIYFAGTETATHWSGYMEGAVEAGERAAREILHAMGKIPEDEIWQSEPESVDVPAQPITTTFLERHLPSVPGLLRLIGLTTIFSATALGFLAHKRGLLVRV
Protocol: as §1, §2

[3] = system: NRF2-ARE signaling pathway; assay: cells; type: cell-based; conditions: concentration required to double luciferase activity, AREc32 cells, 24 h
[4] = system: HO-1; assay: Western blotting of HO-1 in hippocampal slices exposed to OA; type: cell-based, mouse; conditions: hippocampal slices treated with OA
Description: As iNOS can be produced through the NF-κB (nuclear factor kappa-light-chain-enhancer of activated B cells) pathway, we analyzed the levels of p65, one of the components that form the NF-κB transcription factor family.[82] […] We also measured HO-1, an inducible enzyme transcribed by NRF2, known for its anti-inflammatory, antioxidant, and neuroprotective effects. […] NRF2 and NF-κB signaling pathways cooperate to maintain the physiological homeostasis of cellular redox status and to regulate the cellular response to stress and inflammation.[19],[83] […] This last mechanism could be related to our resveratrol-based MTDL 4e.
After acute treatment, the hippocampal slices were lysed in a cold AKT lysis buffer (137 mM NaCl, 20 mM NaF, 10% glycerol, 20 mM Tris–HCl, 1% Nonidet P-40, 1 μg/mL leupeptin, 1 mM phenylmethylsulfonylfluoride, 1 mM sodium pyrophosphate, and 1 mM Na3VO4, pH 7.5). The total protein in each sample was quantified using the Pierce BCA protein kit (Thermo Fisher). 20 μg of protein was resolved by sodium dodecyl sulfate polyacrylamide gel electrophoresis (SDS-PAGE) and transferred to Immobilon-P PVDF membranes (Millipore Corp.). […] The membranes were washed, incubated with ECL WB Kit (GE Healthcare, Amersham), and exposed using a ChemiDoc MP system (Bio-Rad Laboratories) for the visualization of the specific bands, which were then analyzed with Fiji software.

C#CCn1nc(/C=C/c2ccc(OC)cc2)oc1=O [4e, 5-[(E)-2-(4-Methoxyphenyl)ethenyl]-3-(prop-2-yn-1-yl)-1,3,4-oxadiazol-2(3H)-one]
IC50 [1]: > 50 µM
IC50 [2]: 8.05 ± 1.82 µM
NRF2 (CD, μM) [3]: 9.83 ± 0.6 µM
HO-1 level [4]: further increased
